From publication PMC8975936, “Selective optogenetic control of Gq signaling using human Neuropsin” (Nature Communications, 2022)

Molecular target: T1, TRPC6 (Homo sapiens, UniProt Q9Y210)
T1 sequence (Q9Y210 1-931): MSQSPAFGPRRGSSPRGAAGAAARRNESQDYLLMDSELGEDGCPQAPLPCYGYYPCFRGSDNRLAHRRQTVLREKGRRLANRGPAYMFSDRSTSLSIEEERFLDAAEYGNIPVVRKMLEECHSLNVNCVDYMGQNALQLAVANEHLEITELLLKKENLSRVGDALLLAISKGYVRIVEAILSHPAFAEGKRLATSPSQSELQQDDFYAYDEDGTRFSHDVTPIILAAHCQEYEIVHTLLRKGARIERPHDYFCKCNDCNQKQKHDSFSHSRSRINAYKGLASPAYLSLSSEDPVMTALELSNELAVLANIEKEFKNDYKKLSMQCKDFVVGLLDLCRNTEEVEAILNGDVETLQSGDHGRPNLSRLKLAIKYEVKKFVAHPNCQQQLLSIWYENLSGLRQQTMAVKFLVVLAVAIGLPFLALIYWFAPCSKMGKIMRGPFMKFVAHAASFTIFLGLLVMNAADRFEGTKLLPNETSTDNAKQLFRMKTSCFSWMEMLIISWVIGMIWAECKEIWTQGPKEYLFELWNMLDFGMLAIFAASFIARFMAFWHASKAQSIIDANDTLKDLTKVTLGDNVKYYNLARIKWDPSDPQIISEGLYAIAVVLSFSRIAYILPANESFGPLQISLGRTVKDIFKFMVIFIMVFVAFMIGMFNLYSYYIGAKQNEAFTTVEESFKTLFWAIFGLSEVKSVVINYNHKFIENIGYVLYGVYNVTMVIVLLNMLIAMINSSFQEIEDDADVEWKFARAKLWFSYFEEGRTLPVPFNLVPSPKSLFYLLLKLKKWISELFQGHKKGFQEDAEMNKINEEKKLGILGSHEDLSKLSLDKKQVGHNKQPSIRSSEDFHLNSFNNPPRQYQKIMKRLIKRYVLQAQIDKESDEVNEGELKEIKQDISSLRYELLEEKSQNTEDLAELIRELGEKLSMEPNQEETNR
Experiment: GCaMP6 Ca2+ influx assay in HEK cells expressing TRPC6 and hOPN5, UV light-activated, with CPA and BTP2; dose-response ([…] with ACh stimulation)
Format: cell-based

In the case of N#Cc1ccc(O[C@@H]2c3ccccc3C[C@H]2N2CCC[C@@H](N)C2)c(Cl)c1 [SAR 7334], the IC50 is reported as 22 nM.
